Columns and labels:
Type in all cases: physicochemical
[1] = Screening of salt derivative solubility in ethanol co-solvent
Source text: Solubility, of a drug salt derivative, to an appreciable extent, in solvents miscible with the propellant(s) provides a simple yet robust screening method.
The co-solvent used to screen derivative solubility and formulation approach was ethanol. […] A comprehensive list can be taken from texts such as the handbook of pharmaceutical excipients. Ethanol and water mixtures may be utilised. For solution aerosols a single phase is required when in the final formulation, but equally a suspension or emulsion may results and be utilised. As the model bronchodilator was a basic compound acids requisite for salt formation (from pKa values) were selected. […] The solvent necessary to facilitate dissolution is assumed to be of sufficient dielectric constant and an ideal solvent, although skilled practitioners will endeavor to try a range of solvents as formulation science is empirical. Other examples of suitable acids are acetate, benzenesulphonate, mesylate etc, and can be sought from any suitable text: Martindale 2005. […] Preferentially precipitated or solvated species may result from careful selection of reagents and forms of the active described. Preferentially precipitated or solvated compounds can be isolated either in bulk or in-situ for use.
Two non-limiting examples of use of the manufacture/ screening method are described below.

[2] = Stability of ethanol / HFA 134(a) pMDI formulations in plastic coated glass bottles; settings: ethanol co-solvent in HFA 134(a); equivalent to 100mcg of free base per actuation
Source text: The solid compound is then isolated by a suitable method. Figures 3 and 4 indicates the solubility profiles of the respective salts synthesised. […] The mass of derivative was formulated at a level to give an equivalent to 100mcg of free base per actuation from the metering valve. Results from the formulations are depicted in figure 5 for the maleate salt 6 for the oleate salt and 7 to illustrate the precipitation technique by 7 controlled precipitation by the use of a second antisolvent: water on formulations of salbutamol maleate. […] Skilled artisans may endeavour to include surfactants or further co-solvents to enhance solubility. Such excipients may include but not be limited to conventional surfactants: Brij's Tween's lecithins polyvinylpyrollidone and those described in suitable pharmaceutical excipients handbooks. Figures 5, 6 (maleate salt side and plan views) and 7 (oleate salt arrows indicate crystals) illustrate 134(a) as an antisolvent as the drug […] from solution. The particle size of each drug is different, which leads to an embodiment of invention: use of derivative, co-solvent level, excipients level and antisolvent concentrations to precipitate actives to a desired particle size by careful moderation of the components. […] Formulations were then stored at specified temperatures and assessed periodically. […]

[3] = Cascade impactor particle size and deposition under controlled temperature and relative humidity
Source text: Formulations of salt derivatives whether prepared by the following method but any suitable method can be utilise. Plastic coated glass pMDI bottles (St Gobain, France) were weighed on a balance and tared after first undergoing a rinse with clean and dry compressed air. Drug was weighed accurately by difference in order to give an equivalent of 100mcg freebase as related to molecular mass of the salt and the same procedure repeated for absolute ethanol (Fisher scientific). A continuous […] on (Bespak, Kings Lynn, UK), according to manufacturers specifications and the bottle then sonicated (Decon FS 3006) for several minutes to induce complete dissolution of the drug. The bottle was then dried and once again tared on the balance. HFA 134(a) was subsequently charged through the valve using a Pamasol 2002 hand […] (DH Industries, Laindon, Essex, UK). The final formulation preparation was sonicated for a further several minutes for completeness. Formulations were then stored at specified temperatures and assessed periodically. All solutions were prepared in duplicate. 10% w/w ethanol : 90% w/w HFA 134(a) formulations were prepared. This is in no way intended to limit the extent of the formulations. Solutions were tested for particle size using a cascade impactor, which to that practitioner skilled is standardised method for determining particle size distributions, under conditions of thermal and environmental control. Figures 9-12 illustrate the invention from particle size results. […] It is therefore an embodiment to use derivatives to utilise derivatives not known to optimise deposition.

[4] = Morphology of particles deposited from pMDI (SEM, impactor plate); settings: lab ambient, without a liquid air interface

Row | Substance | solubility in ethanol [1] | behaviour of the salt in ethanol solution (stable or precipitates) ([1]; ethanol reaction solution) | co-solvent level at which stable solution formulations achievable [2] [% w/w] | %Deposited at Location ACTUATOR ([3]; HT/HRH) [%] | %Deposited at Location FPF ([3]; HT/HRH) [%] | %Deposited at Location THROAT ([3]; HT/HRH) [%] | %Deposited at Location ACTUATOR ([3]; HT/LRH) [%] | %Deposited at Location FPF ([3]; HT/LRH) [%] | %Deposited at Location THROAT ([3]; HT/LRH) [%] | %Deposited at Location ACTUATOR ([3]; LT/HRH) [%] | %Deposited at Location FPF ([3]; LT/HRH) [%] | %Deposited at Location THROAT ([3]; LT/HRH) [%] | %Deposited at Location ACTUATOR ([3]; LT/LRH) [%] | %Deposited at Location FPF ([3]; LT/LRH) [%] | %Deposited at Location THROAT ([3]; LT/LRH) [%] | particle morphology on deposition [4]
1 | salbutamol fumarate | NB the Fumarate was insoluble in ethanol even though its only difference to the maleate was the trans arrangement of the carboxylic acid groups. |  |  |  |  |  |  |  |  |  |  |  |  |  |  | 
2 | Salbutamol cis-butenedioate (Maleate) | ethanol soluble | stable as a solution in ethanol, even at ultra low temperatures | 15 | 27.35 | 57.42 | 11.78 | 22.00 | 63.24 | 12.74 | 16.33 | 52.88 | 25.96 | 8.97 | 42.76 | 44.24 | 
3 | Salbutamol cis-octadecenoate (Oleate) |  |  | 30 | 20.37 | 67.00 | 7.52 | 16.74 | 67.87 | 7.70 | 19.54 | 67.43 | 8.82 | 6.86 | 72.33 | 17.29 | spread as a surfactant

From patent EP1588698A2, “A process for the production and screening of materials for use in pharmaceutical aerosol formulations” (Thompson, James Anthony, priority 2004, dated 2005)
